What was measured:
barnyardgrass [1] = experiment: Test A preemergence; type: in vivo, Echinochloa crus-galli; conditions: preemergence
Outline: (§1)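 Ratings express plant response from 0 (no effect) to 100 (complete control), judged visually against untreated controls after approximately 10 days in the greenhouse. Preemergence applications were made as directed soil sprays onto seeded loam–sand mix, and postemergence applications onto 2–10 cm plants at one- to two-leaf stage.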

crabgrass, large [2] = experiment: Test A preemergence; type: in vivo, Digitaria sanguinalis; conditions: preemergence; for Crabgrass, Large plant response rating (0 to 100 scale): 125 g ai/ha, visual injury approx. 10 days after treatment; for Crabgrass, Large plant response rating: 500 g ai/ha, visual injury after approx. 10 days, 0 to 100 scale (0 no effect, 100 complete control)
Outline: as §1

foxtail, giant [3] = experiment: Test A preemergence; type: in vivo, Setaria faberii; conditions: preemergence; for Foxtail, Giant plant response rating (0 to 100 scale): 125 g ai/ha, visual injury approx. 10 days after treatment; for Foxtail, Giant plant response rating: 500 g ai/ha, visual injury after approx. 10 days, 0 to 100 scale (0 no effect, 100 complete control)
Outline: as §1

morningglory [4] = experiment: Test A preemergence; type: in vivo, Ipomoea spp.; conditions: preemergence; for Morningglory plant response rating (0 to 100 scale): 125 g ai/ha, visual injury approx. 10 days after treatment; for Morningglory plant response rating: 500 g ai/ha, visual injury after approx. 10 days, 0 to 100 scale (0 no effect, 100 complete control)
Outline: as §1

pigweed [5] = experiment: Test A preemergence; type: in vivo, Amaranthus retroflexus; conditions: preemergence; for Pigweed plant response rating (0 to 100 scale): 125 g ai/ha, visual injury approx. 10 days after treatment; for Pigweed plant response rating: 500 g ai/ha, visual injury after approx. 10 days, 0 to 100 scale (0 no effect, 100 complete control)
Outline: as §1

velvetleaf [6] = experiment: Test A preemergence; type: in vivo, Abutilon theophrasti; conditions: preemergence; for Velvetleaf plant response rating (0 to 100 scale): 125 g ai/ha, visual injury approx. 10 days after treatment; for Velvetleaf plant response rating: 500 g ai/ha, visual injury after approx. 10 days, 0 to 100 scale (0 no effect, 100 complete control)
Outline: as §1

wheat [7] = experiment: Test A preemergence; type: in vivo, Triticum aestivum; conditions: preemergence; for Wheat plant response rating (0 to 100 scale): 125 g ai/ha, visual injury approx. 10 days after treatment; for Wheat plant response rating: 500 g ai/ha, visual injury after approx. 10 days, 0 to 100 scale (0 no effect, 100 complete control)
Outline: as §1

corn [8] = experiment: Test A preemergence; type: in vivo, Zea mays; conditions: preemergence; for Corn plant response rating (0 to 100 scale): 125 g ai/ha, visual injury approx. 10 days after treatment; for Corn plant response rating: 500 g ai/ha, visual injury after approx. 10 days, 0 to 100 scale (0 no effect, 100 complete control)
Outline: as §1

barnyardgrass [9] = experiment: Test A postemergence; type: in vivo, Echinochloa crus-galli
Outline: as §1

crabgrass, large [10] = experiment: Test A postemergence; type: in vivo, Digitaria sanguinalis
Outline: as §1

foxtail, giant [11] = experiment: Test A postemergence; type: in vivo, Setaria faberii
Outline: as §1

morningglory [12] = experiment: Test A postemergence; type: in vivo, Ipomoea spp.
Outline: as §1

pigweed [13] = experiment: Test A postemergence; type: in vivo, Amaranthus retroflexus
Outline: as §1

velvetleaf [14] = experiment: Test A postemergence; type: in vivo, Abutilon theophrasti
Outline: as §1

wheat [15] = experiment: Test A postemergence; type: in vivo, Triticum aestivum
Outline: as §1

corn [16] = experiment: Test A postemergence; type: in vivo, Zea mays
Outline: as §1

rice = experiment: Test B flood; type: in vivo, Oryza sativa; conditions: 250 g ai/ha, visual rating on 0 to 100 scale (0 no effect, 100 complete control), 13 to 15 days
Outline: (§2)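 Paddy-water application: seedlings at 2-leaf stage, flood depth 3 cm maintained for the test duration. Evaluation after 13–15 days in the greenhouse by eye relative to controls; 0–100 scale.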

sedge, umbrella = experiment: Test B flood; type: in vivo, Cyperus difformis; conditions: 250 g ai/ha, visual rating on 0 to 100 scale (0 no effect, 100 complete control), 13 to 15 days
Outline: as §2

ducksalad = experiment: Test B flood; type: in vivo, Heteranthera limosa; conditions: 250 g ai/ha, visual rating on 0 to 100 scale (0 no effect, 100 complete control), 13 to 15 days
Outline: as §2

barnyardgrass [17] = experiment: Test B flood; type: in vivo, Echinochloa crus-galli; conditions: 250 g ai/ha, visual rating on 0 to 100 scale (0 no effect, 100 complete control), 13 to 15 days
Outline: as §2

[18] = 125 g ai/ha, visual injury, 0 to 100 scale, approx. 10 days
[19] = 500 g ai/ha, visual injury after approx. 10 days, 0 to 100 scale (0 no effect, 100 complete control)
[20] = Postemergence, 500 g ai/ha, 0 to 100 scale (0 no effect, 100 complete control)
[21] = postemergence, 125 g ai/ha, about 10 days, visual rating on 0 to 100 scale (0 no effect, 100 complete control)

Row | SMILES | Barnyardgrass plant response rating (barnyardgrass [1]; [18]) | Barnyardgrass plant response rating (barnyardgrass [1]; [19]) | Crabgrass, Large plant response rating (0 to 100 scale) (crabgrass, large [2]) | Crabgrass, Large plant response rating (crabgrass, large [2]) | Foxtail, Giant plant response rating (0 to 100 scale) (foxtail, giant [3]) | Foxtail, Giant plant response rating (foxtail, giant [3]) | Morningglory plant response rating (0 to 100 scale) (morningglory [4]) | Morningglory plant response rating (morningglory [4]) | Pigweed plant response rating (0 to 100 scale) (pigweed [5]) | Pigweed plant response rating (pigweed [5]) | Velvetleaf plant response rating (0 to 100 scale) (velvetleaf [6]) | Velvetleaf plant response rating (velvetleaf [6]) | Wheat plant response rating (0 to 100 scale) (wheat [7]) | Wheat plant response rating (wheat [7]) | Corn plant response rating (0 to 100 scale) (corn [8]) | Corn plant response rating (corn [8]) | Barnyardgrass plant response rating (barnyardgrass [9]; [20]) | Barnyardgrass plant response rating (barnyardgrass [9]; [21]) | Crabgrass, Large plant response rating (crabgrass, large [10]; [20]) | Crabgrass, Large plant response rating (crabgrass, large [10]; [21]) | further results
1 | COCc1cc(C(=O)NC2CC2)nn1Cc1ccnc(C(F)(F)F)c1 [Compound 167] | 30 | 100 | 80 | 100 | 90 | 100 | 50 | 100 | 100 | 100 | 30 | 100 | 0 | 50 | 0 | 40 | 80 | 20 | 80 | 20 | Foxtail, Giant plant response rating (foxtail, giant [11]; [20]): 90; Foxtail, Giant plant response rating (foxtail, giant [11]; [21]): 40; Morningglory plant response rating (morningglory [12]; [20]): 100; Morningglory plant response rating (morningglory [12]; [21]): 80; Pigweed plant response rating (pigweed [13]; [20]): 100; Pigweed plant response rating (pigweed [13]; [21]): 70; Velvetleaf plant response rating (velvetleaf [14]; [20]): 60; Velvetleaf plant response rating (velvetleaf [14]; [21]): 30; Wheat plant response rating (wheat [15]; [20]): 30; Wheat plant response rating (wheat [15]; [21]): 0; Corn plant response rating (corn [16]; [20]): 70; Corn plant response rating (corn [16]; [21]): 10; Plant response rating, Rice (rice): 20; Plant response rating, Sedge, Umbrella (sedge, umbrella): 70; Plant response rating, Ducksalad (ducksalad): 80; Plant response rating, Barnyardgrass (barnyardgrass [17]): 20
2 | CCCNC(=O)c1cc(Br)n(Cc2cccc(C(F)(F)F)c2)n1 [Compound 159] | 0 | 20 | 10 | 90 | 0 | 30 | 0 | 0 | 10 | 60 | 0 | 0 | 0 | 0 | 0 | 0 | 30 | 0 | 30 | 20 | Foxtail, Giant plant response rating (foxtail, giant [11]; [20]): 30; Foxtail, Giant plant response rating (foxtail, giant [11]; [21]): 20; Morningglory plant response rating (morningglory [12]; [20]): 40; Morningglory plant response rating (morningglory [12]; [21]): 30; Pigweed plant response rating (pigweed [13]; [20]): 60; Pigweed plant response rating (pigweed [13]; [21]): 50; Velvetleaf plant response rating (velvetleaf [14]; [20]): 70; Velvetleaf plant response rating (velvetleaf [14]; [21]): 60; Wheat plant response rating (wheat [15]; [20]): 20; Wheat plant response rating (wheat [15]; [21]): 0; Corn plant response rating (corn [16]; [20]): 20; Corn plant response rating (corn [16]; [21]): 10; Plant response rating, Rice (rice): 0; Plant response rating, Sedge, Umbrella (sedge, umbrella): 0; Plant response rating, Ducksalad (ducksalad): 0; Plant response rating, Barnyardgrass (barnyardgrass [17]): 0
